Where a name gives a salt, the structure may show the parent alone.
Key:
human GSK3α = biological target: T1, human GSK3α (Homo sapiens, UniProt P49840); experiment: In vitro enzymatic activity assay, GSK3α; assay type: biochemical; details: 1.0 mM ATP, 1.0 μM peptide substrate, 120 min, 25° C, read-out: Enzyme GSK3α (IC50)
T1 construct: Full length human GSK3α or GSK3B expressed as N-terminal GST fusion proteins; GST (N); purchased Carna Biosciences (Japan); host or cells: baculovirus host

GSK3A = biological target: T2, GSK3A (Homo sapiens, UniProt P49840); experiment: NanoBRET cellular target engagement assay, Nanoluc-GSK3A in HEK293 cells; assay type: cell-based; details: NanoBRET GSK3α IC50, HEK293 cells, tracer K-8, 2 hours, 37° C
T2 construct: expressed in transfected cells

GSK3B [1] = biological target: T3, GSK3B (Homo sapiens, UniProt P49841); experiment: NanoBRET cellular target engagement assay, Nanoluc-GSK3B in HEK293 cells; assay type: cell-based; design: expressed in transfected cells; details: NanoBRET GSK3β IC50, HEK293 cells, tracer K-8, 2 hours, 37° C
GSK3B [2] = biological target: T3, GSK3B; experiment: In vitro enzymatic activity assay, GSK3β; assay type: biochemical; design: Full length human GSK3α or GSK3B expressed as N-terminal GST fusion proteins; GST (N); purchased Carna Biosciences (Japan); host or cells: baculovirus host; details: 1.0 mM ATP, 1.0 μM peptide substrate, 120 min, 25° C, read-out: Enzyme GSK3β (IC50)

T3 sequence (P49841 whole entry, the tested form may be a part): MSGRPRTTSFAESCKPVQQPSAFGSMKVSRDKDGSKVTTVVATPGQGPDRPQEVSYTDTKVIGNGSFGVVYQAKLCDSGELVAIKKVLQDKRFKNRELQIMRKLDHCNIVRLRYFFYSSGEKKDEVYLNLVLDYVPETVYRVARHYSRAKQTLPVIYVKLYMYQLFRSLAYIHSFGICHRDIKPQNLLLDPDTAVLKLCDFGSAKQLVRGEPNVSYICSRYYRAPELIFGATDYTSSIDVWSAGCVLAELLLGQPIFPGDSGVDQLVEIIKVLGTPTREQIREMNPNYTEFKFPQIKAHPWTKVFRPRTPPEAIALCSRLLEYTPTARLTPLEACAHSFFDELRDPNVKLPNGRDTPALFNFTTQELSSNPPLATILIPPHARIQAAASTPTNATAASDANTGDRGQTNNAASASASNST
T1 sequence (P49840 whole entry, the tested form may be a part): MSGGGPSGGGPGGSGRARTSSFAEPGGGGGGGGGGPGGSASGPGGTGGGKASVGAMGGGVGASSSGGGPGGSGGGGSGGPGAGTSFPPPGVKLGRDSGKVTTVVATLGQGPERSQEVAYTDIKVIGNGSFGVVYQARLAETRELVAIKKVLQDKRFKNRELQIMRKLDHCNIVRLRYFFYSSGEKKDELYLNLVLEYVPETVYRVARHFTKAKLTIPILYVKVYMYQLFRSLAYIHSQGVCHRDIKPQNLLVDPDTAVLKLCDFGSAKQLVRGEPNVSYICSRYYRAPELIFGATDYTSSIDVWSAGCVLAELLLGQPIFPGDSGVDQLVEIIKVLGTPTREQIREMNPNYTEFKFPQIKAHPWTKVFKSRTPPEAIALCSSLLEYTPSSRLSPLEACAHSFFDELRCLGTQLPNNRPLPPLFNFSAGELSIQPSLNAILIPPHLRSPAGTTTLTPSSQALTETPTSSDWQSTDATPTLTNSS
T2 sequence (P49840 whole entry): as the sequence (P49840 whole entry, the tested form may be a part) above

Row | IC50 (human GSK3α) [nM] | IC50 (GSK3A) [nM] | IC50 (GSK3B [1]) [nM] | IC50 (GSK3B [2]) [nM] | SMILES
1 | 15.9 | 8.6 | 797 | 888 | Nc1ncn(-c2c(Cl)cccc2Cl)c(=O)c1C(=O)Nc1cccc([C@@H]2COCCCN2)c1 (single isomer, unassigned) [Example 211, (R)—N-(3-(1,4-oxazepan-3-yl)phenyl)-4-amino-1-(2,6-dichlorophenyl)-6-oxo-1,6-dihydropyrimidine-5-carboxamide or (S)—N-(3-(1,4-oxazepan-3-yl)phenyl)-4-amino-1-(2,6-dichlorophenyl)-6-oxo-1,6-dihydropyrimidine-5-carboxamide]
2 | 4.7 | 7.6 | 520 | 272 | COc1cc(Cl)c(-n2cnc(N)c(C(=O)Nc3cncc(C4COCCN4)c3)c2=O)c(Cl)c1 (single isomer, unassigned) [Example 212, (S)-4-amino-1-(2,6-dichloro-4-methoxyphenyl)-N-(5-(morpholin-3-yl)pyridin-3-yl)-6-oxo-1,6-dihydropyrimidine-5-carboxamide or (R)-4-amino-1-(2,6-dichloro-4-methoxyphenyl)-N-(5-(morpholin-3-yl)pyridin-3-yl)-6-oxo-1,6-dihydropyrimidine-5-carboxamide]
3 | 33.2 | 7.8 | 992 | 1760 | COc1cc(Cl)c(-n2cnc(N)c(C(=O)Nc3cncc([C@@H]4CCN4)c3)c2=O)c(Cl)c1 (single isomer, unassigned) [Example 213, (S)-4-amino-N-(5-(azetidin-2-yl)pyridin-3-yl)-1-(2,6-dichloro-4-methoxyphenyl)-6-oxo-1,6-dihydropyrimidine-5-carboxamide or (R)-4-amino-N-(5-(azetidin-2-yl)pyridin-3-yl)-1-(2,6-dichloro-4-methoxyphenyl)-6-oxo-1,6-dihydropyrimidine-5-carboxamide]
4 | 17.3 | 8.9 | 640 | 930 | COc1cc(Cl)c(-n2cnc(N)c(C(=O)Nc3cncc([C@@H]4C[C@@H](C)N4)c3)c2=O)c(Cl)c1 (single isomer, unassigned) [Example 214, 4-amino-1-(2,6-dichloro-4-methoxyphenyl)-N-(5-((2S,4R)-4-methylazetidin-2-yl)pyridin-3-yl)-6-oxo-1,6-dihydropyrimidine-5-carboxamide formate or 4-amino-1-(2,6-dichloro-4-methoxyphenyl)-N-(5-((2R,4S)-4-methylazetidin-2-yl)pyridin-3-yl)-6-oxo-1,6-dihydropyrimidine-5-carboxamide formate]
5 | 7.2 | 8.5 | 690 | 500 | Nc1ncn(-c2c(Cl)cccc2Cl)c(=O)c1C(=O)Nc1cncc([C@H]2CCOCCN2)c1 (single isomer, unassigned) [Example 215, (R)—N-(5-(1,4-oxazepan-5-yl)pyridin-3-yl)-4-amino-1-(2,6-dichlorophenyl)-6-oxo-1,6-dihydropyrimidine-5-carboxamide or (S)—N-(5-(1,4-oxazepan-5-yl)pyridin-3-yl)-4-amino-1-(2,6-dichlorophenyl)-6-oxo-1,6-dihydropyrimidine-5-carboxamide]
6 | 7.8 | 8 | 424 | 305 | Cc1cccc(Cl)c1-n1cnc(N)c(C(=O)Nc2cccc([C@@H]3CCCN3)c2F)c1=O (single isomer, unassigned) [Example 217, (S)-4-amino-1-((S)-2-chloro-6-methylphenyl)-N-(2-fluoro-3-(pyrrolidin-2-yl)phenyl)-6-oxo-1,6-dihydropyrimidine-5-carboxamide or (R)-4-amino-1-((S)-2-chloro-6-methylphenyl)-N-(2-fluoro-3-(pyrrolidin-2-yl)phenyl)-6-oxo-1,6-dihydropyrimidine-5-carboxamide]
7 | 10.8 | 5.6 | 401 | 421 | CCc1cc(C)c(-n2cnc(N)c(C(=O)Nc3cncc([C@@H](C)N)c3)c2=O)c(C)c1 (single isomer, unassigned) [Example 218, (R)-4-amino-N-(5-(1-aminoethyl)pyridin-3-yl)-1-(4-ethyl-2,6-dimethylphenyl)-6-oxo-1,6-dihydropyrimidine-5-carboxamide or (S)-4-amino-N-(5-(1-aminoethyl)pyridin-3-yl)-1-(4-ethyl-2,6-dimethylphenyl)-6-oxo-1,6-dihydropyrimidine-5-carboxamide]
8 | 5.4 | 3.8 | 187 | 271 | CCOc1cc(Cl)c(-n2cnc(N)c(C(=O)Nc3cncc([C@@H](C)N)n3)c2=O)c(Cl)c1 (single isomer, unassigned) [Example 219, (R)-4-amino-N-(6-(1-aminoethyl)pyrazin-2-yl)-1-(2,6-dichloro-4-ethoxyphenyl)-6-oxo-1,6-dihydropyrimidine-5-carboxamide or (S)-4-amino-N-(6-(1-aminoethyl)pyrazin-2-yl)-1-(2,6-dichloro-4-ethoxyphenyl)-6-oxo-1,6-dihydropyrimidine-5-carboxamide]
9 | 2.1 | 4.6 | 148 | 99.2 | COc1cc(Cl)c(-n2cnc(N)c(C(=O)Nc3cc(F)cc([C@H]4CCCCN4)c3)c2=O)c(Cl)c1 (single isomer, unassigned) [Example 222, (R)-4-amino-1-(2,6-dichloro-4-methoxyphenyl)-N-(3-fluoro-5-(piperidin-2-yl)phenyl)-6-oxo-1,6-dihydropyrimidine-5-carboxamide or (S)-4-amino-1-(2,6-dichloro-4-methoxyphenyl)-N-(3-fluoro-5-(piperidin-2-yl)phenyl)-6-oxo-1,6-dihydropyrimidine-5-carboxamide]
10 | 8.3 | 6.2 | 383 | 378 | CCNCc1cncc(NC(=O)c2c(N)ncn(-c3c(Cl)cccc3Cl)c2=O)c1 [Example 5, 4-amino-1-(2,6-dichlorophenyl)-N-(5-((ethylamino)methyl)pyridin-3-yl)-6-oxo-1,6-dihydropyrimidine-5-carboxamide]
11 | 7.2 | 6.5 | 352 | 292 | CN[C@H](C)c1cc(F)cc(NC(=O)c2c(N)ncn(-c3c(Cl)cccc3Cl)c2=O)c1 [Example 6, (R)-4-amino-1-(2,6-dichlorophenyl)-N-(3-fluoro-5-(1-(methylamino)ethyl)phenyl)-6-oxo-1,6-dihydropyrimidine-5-carboxamide trifluoroacetate]
12 | 8.8 | 6.9 | 371 | 395 | CCNCc1cncc(NC(=O)c2c(N)ncn(-c3c(Cl)cc(OC(F)F)cc3Cl)c2=O)c1 [Example 10, 4-amino-1-(2,6-dichloro-4-(difluoromethoxy)phenyl)-N-(5-((ethylamino)methyl)pyridin-3-yl)-6-oxo-1,6-dihydropyrimidine-5-carboxamide]
13 | 6.4 | 4 | 231 | 318 | CCNCc1cncc(NC(=O)c2c(N)ncn(-c3c(Cl)cc(C(F)F)cc3Cl)c2=O)c1 [Example 14, 4-amino-1-(2,6-dichloro-4-(difluoromethyl)phenyl)-N-(5-((ethylamino)methyl)pyridin-3-yl)-6-oxo-1,6-dihydropyrimidine-5-carboxamide]
14 | 4.5 | 2.2 | 119 | 208 | COCc1cc(Cl)c(-n2cnc(N)c(C(=O)Nc3cncc(C(C)(C)N)c3)c2=O)c(Cl)c1 [Example 15, 4-amino-N-(5-(2-aminopropan-2-yl)pyridin-3-yl)-1-(2,6-dichloro-4-(methoxymethyl)phenyl)-6-oxo-1,6-dihydropyrimidine-5-carboxamide]
15 | 7.8 | 3.8 | 271 | 340 | CCNCc1cncc(NC(=O)c2c(N)ncn(-c3c(Cl)cc(OC)cc3Cl)c2=O)c1 [Example 17, 4-amino-1-(2,6-dichloro-4-methoxyphenyl)-N-(5-((ethylamino)methyl)pyridin-3-yl)-6-oxo-1,6-dihydropyrimidine-5-carboxamide]
16 | 14 | 7.2 | 396 | 685 | COc1cc(Cl)c(-n2cnc(N)c(C(=O)Nc3cncc(CNC(C)C)c3)c2=O)c(Cl)c1 [Example 20, 4-amino-1-(2,6-dichloro-4-methoxyphenyl)-N-(5-((isopropylamino)methyl)pyridin-3-yl)-6-oxo-1,6-dihydropyrimidine-5-carboxamide]
17 | 3.2 | 2.6 | 145 | 217 | COc1cc(Cl)c(-n2cnc(N)c(C(=O)Nc3cncc(C4(N)CCCC4)c3)c2=O)c(Cl)c1 [Example 21, 4-amino-N-(5-(1-aminocyclopentyl)pyridin-3-yl)-1-(2,6-dichloro-4-methoxyphenyl)-6-oxo-1,6-dihydropyrimidine-5-carboxamide]
18 | 8.4 | 5.6 | 334 | 389 | CCNCc1cncc(NC(=O)c2c(N)ncn(-c3c(Cl)cc(C(F)(F)F)cc3Cl)c2=O)c1 [Example 22, 4-amino-1-(2,6-dichloro-4-(trifluoromethyl)phenyl)-N-(5-((ethylamino)methyl)pyridin-3-yl)-6-oxo-1,6-dihydropyrimidine-5-carboxamide]
